# Results published in ChEMBL document CHEMBL5465560, “Selectivity Literature for EUbOPEN Chemogenomic Library” (2024).
# Legend:
# [1] = target: T1, Serine/threonine-protein kinase RIO1 (Homo sapiens) (UniProt Q9BRS2); test: Selectivity interaction (KinomeScan (DiscoverX)) EUB0000229b RIOK1; details: at 10 µM
# T1 sequence (whole entry): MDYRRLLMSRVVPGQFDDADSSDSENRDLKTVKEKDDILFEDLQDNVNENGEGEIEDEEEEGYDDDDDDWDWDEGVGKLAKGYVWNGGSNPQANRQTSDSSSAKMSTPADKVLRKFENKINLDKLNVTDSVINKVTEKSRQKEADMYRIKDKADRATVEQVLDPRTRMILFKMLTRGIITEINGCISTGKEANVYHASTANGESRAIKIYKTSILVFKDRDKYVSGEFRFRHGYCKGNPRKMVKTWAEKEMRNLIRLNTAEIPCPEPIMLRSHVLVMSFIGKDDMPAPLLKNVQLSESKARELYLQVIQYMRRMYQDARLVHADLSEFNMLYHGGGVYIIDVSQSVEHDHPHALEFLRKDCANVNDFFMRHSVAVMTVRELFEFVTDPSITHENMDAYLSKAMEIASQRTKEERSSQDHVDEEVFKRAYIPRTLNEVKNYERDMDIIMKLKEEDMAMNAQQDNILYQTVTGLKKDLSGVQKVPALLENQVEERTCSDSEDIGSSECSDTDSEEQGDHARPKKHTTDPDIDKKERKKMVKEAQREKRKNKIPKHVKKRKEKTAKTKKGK
# [2] = target: Bromodomain-containing protein 2 (Homo sapiens) (UniProt P25440); test: Selectivity interaction (Human bromodomain panel (DSF assay)) EUB0000233b BRD2
# [3] = target: Serine/threonine-protein kinase PRP4 homolog (Homo sapiens) (UniProt Q13523); test: Selectivity interaction (ActivX KiNativ screen (kinase selectivity in THP-1 cell lysates)) EUB0000639a PRPF4; format: subcellular; details: lysate, at 0.04 µM
# [4] = target: Dual specificity protein kinase CLK3 (Homo sapiens, UniProt P49761); test: Selectivity interaction (Ambit KINOMEscan and KiNATiv profiling in Jurkat cells) EUB0000090b CLK3; format: cell-based; details: at 1 µM
# [5] = target: T2, Myotonin-protein kinase (Homo sapiens) (UniProt Q09013); test: Selectivity interaction (Ambit KINOMEscan and KiNATiv profiling in Jurkat cells) EUB0000090b DMPK; format: cell-based; details: at 1 µM
# T2 sequence (whole entry): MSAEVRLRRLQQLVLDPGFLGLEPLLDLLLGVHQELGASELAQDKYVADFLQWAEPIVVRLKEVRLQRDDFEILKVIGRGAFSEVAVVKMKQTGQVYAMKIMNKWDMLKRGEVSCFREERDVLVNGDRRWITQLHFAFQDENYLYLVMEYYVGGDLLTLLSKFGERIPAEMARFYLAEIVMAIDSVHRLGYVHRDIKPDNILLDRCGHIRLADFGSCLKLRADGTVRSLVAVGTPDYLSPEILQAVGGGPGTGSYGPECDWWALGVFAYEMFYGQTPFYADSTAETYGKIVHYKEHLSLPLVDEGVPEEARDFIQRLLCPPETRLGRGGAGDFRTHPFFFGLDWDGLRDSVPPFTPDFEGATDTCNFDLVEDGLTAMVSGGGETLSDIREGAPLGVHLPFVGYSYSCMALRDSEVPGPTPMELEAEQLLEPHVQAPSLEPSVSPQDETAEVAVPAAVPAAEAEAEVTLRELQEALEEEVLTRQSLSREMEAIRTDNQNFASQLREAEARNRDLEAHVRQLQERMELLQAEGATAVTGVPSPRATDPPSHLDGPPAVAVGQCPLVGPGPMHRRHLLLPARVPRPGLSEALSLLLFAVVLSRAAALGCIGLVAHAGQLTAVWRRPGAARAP
# [6] = target: T3, Ephrin type-A receptor 6 (Homo sapiens) (UniProt Q9UF33); details: at 10 µM
# T3 sequence (whole entry): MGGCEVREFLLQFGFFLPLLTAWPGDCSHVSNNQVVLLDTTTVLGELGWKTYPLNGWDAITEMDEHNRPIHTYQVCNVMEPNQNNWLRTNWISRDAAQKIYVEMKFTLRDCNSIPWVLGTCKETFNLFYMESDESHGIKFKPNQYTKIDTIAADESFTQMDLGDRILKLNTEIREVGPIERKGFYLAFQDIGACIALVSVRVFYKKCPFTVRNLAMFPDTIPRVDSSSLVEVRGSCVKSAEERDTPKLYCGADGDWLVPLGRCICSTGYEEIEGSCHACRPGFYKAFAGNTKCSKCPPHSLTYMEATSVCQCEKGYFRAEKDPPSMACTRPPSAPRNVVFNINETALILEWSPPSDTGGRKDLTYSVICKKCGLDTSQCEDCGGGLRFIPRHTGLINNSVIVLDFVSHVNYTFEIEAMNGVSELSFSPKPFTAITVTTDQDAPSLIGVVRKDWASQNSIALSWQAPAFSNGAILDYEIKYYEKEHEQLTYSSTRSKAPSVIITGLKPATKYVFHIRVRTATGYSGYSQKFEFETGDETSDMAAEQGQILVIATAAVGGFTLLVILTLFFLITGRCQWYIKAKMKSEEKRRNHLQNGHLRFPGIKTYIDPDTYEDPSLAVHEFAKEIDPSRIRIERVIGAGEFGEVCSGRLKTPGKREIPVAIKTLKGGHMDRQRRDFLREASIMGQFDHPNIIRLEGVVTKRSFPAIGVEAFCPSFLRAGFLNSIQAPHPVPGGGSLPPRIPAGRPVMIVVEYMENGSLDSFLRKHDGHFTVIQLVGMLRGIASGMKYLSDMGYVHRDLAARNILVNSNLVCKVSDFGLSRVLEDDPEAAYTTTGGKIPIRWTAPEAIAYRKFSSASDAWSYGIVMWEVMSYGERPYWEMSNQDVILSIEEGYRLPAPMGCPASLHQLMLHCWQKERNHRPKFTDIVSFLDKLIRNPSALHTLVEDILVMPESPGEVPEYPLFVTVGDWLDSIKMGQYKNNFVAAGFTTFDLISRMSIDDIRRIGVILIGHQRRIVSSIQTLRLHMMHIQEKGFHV
# Dual specificity protein kinase CLK3, sequence (P49761 whole entry, looked up): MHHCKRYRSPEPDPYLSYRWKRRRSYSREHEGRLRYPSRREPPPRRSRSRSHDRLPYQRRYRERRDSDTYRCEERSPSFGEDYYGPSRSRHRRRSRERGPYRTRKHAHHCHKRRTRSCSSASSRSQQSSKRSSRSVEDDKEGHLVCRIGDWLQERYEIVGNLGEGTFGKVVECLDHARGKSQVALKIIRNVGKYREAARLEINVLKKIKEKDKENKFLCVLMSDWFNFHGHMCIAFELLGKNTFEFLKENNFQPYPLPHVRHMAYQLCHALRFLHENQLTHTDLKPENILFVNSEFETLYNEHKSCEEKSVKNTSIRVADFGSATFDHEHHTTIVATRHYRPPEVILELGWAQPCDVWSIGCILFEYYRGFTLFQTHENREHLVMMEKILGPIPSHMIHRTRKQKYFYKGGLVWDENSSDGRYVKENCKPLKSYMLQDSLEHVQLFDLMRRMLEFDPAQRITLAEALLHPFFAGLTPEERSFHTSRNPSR
# Serine/threonine-protein kinase PRP4 homolog (Homo sapiens), sequence (Q13523 whole entry): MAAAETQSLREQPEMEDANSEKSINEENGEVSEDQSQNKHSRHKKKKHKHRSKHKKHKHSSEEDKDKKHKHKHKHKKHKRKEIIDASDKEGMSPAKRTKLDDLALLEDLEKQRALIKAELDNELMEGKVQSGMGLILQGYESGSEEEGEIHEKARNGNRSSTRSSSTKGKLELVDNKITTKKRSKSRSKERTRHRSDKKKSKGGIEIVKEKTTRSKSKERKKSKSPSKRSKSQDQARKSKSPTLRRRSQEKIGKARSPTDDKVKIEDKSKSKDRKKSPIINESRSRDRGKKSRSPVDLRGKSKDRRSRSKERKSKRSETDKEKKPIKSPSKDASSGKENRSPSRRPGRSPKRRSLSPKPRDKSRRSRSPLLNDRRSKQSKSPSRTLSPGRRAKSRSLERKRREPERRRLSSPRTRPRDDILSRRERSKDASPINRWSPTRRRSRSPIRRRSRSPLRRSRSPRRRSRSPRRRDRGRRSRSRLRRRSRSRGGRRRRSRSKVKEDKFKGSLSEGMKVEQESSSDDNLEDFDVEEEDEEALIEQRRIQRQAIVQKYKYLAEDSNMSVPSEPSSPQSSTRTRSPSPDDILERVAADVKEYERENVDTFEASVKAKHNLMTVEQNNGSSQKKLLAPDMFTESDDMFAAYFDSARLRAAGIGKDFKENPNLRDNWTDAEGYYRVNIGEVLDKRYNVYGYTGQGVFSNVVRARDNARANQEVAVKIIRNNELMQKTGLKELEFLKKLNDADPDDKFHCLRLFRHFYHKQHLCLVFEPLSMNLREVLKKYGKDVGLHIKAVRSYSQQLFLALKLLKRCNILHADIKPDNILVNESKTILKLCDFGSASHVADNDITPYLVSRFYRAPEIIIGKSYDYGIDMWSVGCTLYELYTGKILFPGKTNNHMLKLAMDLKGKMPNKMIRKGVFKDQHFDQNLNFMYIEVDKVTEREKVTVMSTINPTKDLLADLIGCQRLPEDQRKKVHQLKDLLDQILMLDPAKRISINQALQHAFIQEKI
# Bromodomain-containing protein 2 (Homo sapiens), sequence (P25440 whole entry, looked up): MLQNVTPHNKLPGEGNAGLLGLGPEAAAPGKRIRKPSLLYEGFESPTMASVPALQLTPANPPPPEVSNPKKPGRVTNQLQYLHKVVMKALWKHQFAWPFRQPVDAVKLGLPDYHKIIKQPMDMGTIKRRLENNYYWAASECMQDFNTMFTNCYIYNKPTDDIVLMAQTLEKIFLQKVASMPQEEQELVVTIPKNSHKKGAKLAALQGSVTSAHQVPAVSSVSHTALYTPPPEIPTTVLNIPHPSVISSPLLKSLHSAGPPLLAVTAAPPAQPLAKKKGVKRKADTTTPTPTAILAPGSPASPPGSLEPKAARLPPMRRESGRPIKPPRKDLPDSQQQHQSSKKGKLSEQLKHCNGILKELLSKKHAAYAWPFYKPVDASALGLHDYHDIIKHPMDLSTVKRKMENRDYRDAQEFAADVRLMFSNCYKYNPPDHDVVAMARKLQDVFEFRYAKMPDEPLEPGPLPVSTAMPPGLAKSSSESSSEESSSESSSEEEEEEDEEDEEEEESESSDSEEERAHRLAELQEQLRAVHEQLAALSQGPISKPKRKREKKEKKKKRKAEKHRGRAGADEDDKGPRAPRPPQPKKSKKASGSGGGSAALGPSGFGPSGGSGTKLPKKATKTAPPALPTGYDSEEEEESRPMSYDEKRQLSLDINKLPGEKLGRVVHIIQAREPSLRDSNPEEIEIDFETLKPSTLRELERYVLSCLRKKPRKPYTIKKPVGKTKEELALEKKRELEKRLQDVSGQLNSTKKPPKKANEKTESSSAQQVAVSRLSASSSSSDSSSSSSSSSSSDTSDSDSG
structure (smiles),measurement,setting,value
COc1cc(N(C)c2ccnc3ccc(C(F)(F)F)cc23)cc(OC)c1OC,% binding,[1],95%
CN(C)CCCOc1ccc(-c2cc(NCCCn3cccn3)nc(S(C)(=O)=O)n2)cc1,dTM,[2],< 2 K
CC[C@@H]1[C@H](F)C(=O)N[C@@H]1COc1nccc2cc(C(N)=O)c(OC)cc12 [ZIMLOVISERTIB],% of inhibition,[3],4.1%
CN(C)C/C=C/C(=O)Nc1ccc(C(=O)N2CCCC(Nc3ncc(Cl)c(-c4c[nH]c5ccccc45)n3)C2)cc1 (stereo unspecified),% of control,[4],81%
same,% of control,[5],91%
Cc1cc([C@@H](C)Nc2ccccc2C(=O)O)c2nc(N3CCOCC3)cc(=O)n2c1 [AZD-6482],% of control,[6],100%
